According to US20230322837A1, “PREPARATION METHOD FOR AND APPLICATION OF CLASS OF STELLATE BIFUNCTIONAL COMPOUNDS TARGETING SPIKE PROTEIN AGAINST RESPIRATORY TRACT INFECTION VIRUS AND SALT THEREOF” (priority 2020, published 2023):
Where two headings read alike, the source gives them in different places.

What was measured:
[1] = test system: Lentivirus-NC virus infection of H1299 cells; conditions: different virus titers (MOI 5, 10, 20), FIGS. 7 and 9
Protocol: H1299 Human lung cancer cells, cultured with RPMI-1640 10% fetal bovine serum in an incubator with 5% CO2 and saturated humidity at 37° C. • RPMI-1640 + 10% Fetal Bovine Serum • PBS (Life Science Products&Services) • Trypsin-EDTA Solution (Gibco) • 24-well plate (Corning) • Lentivirus-NC virus solution (GenePharma, 1×10^9 TU/mL)
Principles and procedures for virus infection experiment • 1.

plasma coagulation [2] = conditions: in vitro, rabbit platelet poor plasma, x±s, n = 3
Protocol: (§1) Coagulation is a complex process involving a series of coagulation factors, which essentially include two pathways, “intrinsic coagulation pathway” and “extrinsic coagulation pathway”. Activated partial thromboplastin time (APTT), prothrombin time (PT), and thrombin time (TT) are adopted usually in the laboratory to evaluate the anticoagulant effect.
(§2) New Zealand rabbits were anaesthetized with chloral hydrate, heart puncture was conducted to collect blood into an anticoagulant tube containing ⅒ vol 3.8% sodium citrate, followed by centrifuging at 3000 rpm for 15 min, supernatant was collected to obtain platelet poor plasma which was stored in a refrigerator for later use.
(§3) The compounds were prepared with DMSO to obtain stock solutions with a concentration of 10 mM. Samples to be tested were diluted with normal saline during the test, with a final concentration of 50 µM, 12.5 µM, 3.13 µM, 0.78 µM, 0.20 µM, and 0.05 µM.
TT Assay: 100 µL of prepared plasma was mixed well with 50 µL of the sample mixture to be tested, and pre-heated at 37° C. for 2 min, followed by addition of 50 µL of TT reagent to the mixture and detection to record results of the instrument.
(§4) One-way analysis of variance (One-Way ANOVA) was performed for multi-group comparison; pairwise comparison for means among groups was performed, with Dunnett’s multiple comparisons test in case of homogeneity of variance, and Dunnett’s T3 multiple comparisons test in case of heterogeneity of variance. P <0.05 means statistical significance.

plasma coagulation [3] = conditions: for APTT: in vitro, rabbit platelet poor plasma, x±s, n = 3
Protocol: as §1, §2, §3
APTT Assay: 100 µL of plasma was mixed well with 50 µL of samples to tested respectively, the mixture was pre-heated at 37° C. for 2 min, then 50 µL of APTT reagent was added, followed by incubation at 37° C. for 3 min, addition of 50 µL of 0.025 mol/L CaCl2, and detection on an automatic blood coagulation analyzer to record the coagulation time.
as §4

plasma coagulation [4] = conditions: in vitro, rabbit platelet poor plasma, x±s, n = 3; remark: listed apart in the source
Protocol: as §1, §2, §3
PT Assay: 50 µL of plasma was mixed well with 20 µL of samples to be tested respectively, the mixture was pre-heated at 37° C. for 2 min, followed by incubation at 37° C. for 3 min, and addition of 100 µL of PT reagent. The mixture was mixed well and tested to record the coagulation time.
as §4

O=C(Oc1ccc(-c2coc3c(OC(=O)c4cc(O)c(O)c(O)c4)cc(OC(=O)c4cc(O)c(O)c(O)c4)c(OC(=O)c4cc(O)c(O)c(O)c4)c3c2=O)cc1)c1cc(O)c(O)c(O)c1 [Compound 4]
inhibition of virus infection in cells ([1]; 10 µM concentration): significantly inhibited virus infection in cells
inhibition of virus infection in cells ([1]; 20 µM concentration): significantly inhibit virus infection in cells

O=C(O)CC1OC(O)C(OC(=O)c2cc(O)c(O)c(O)c2)C(OC(=O)c2cc(O)c(O)c(O)c2)C1OC(=O)c1cc(O)c(O)c(O)c1 (stereo not shown) [Compound 6]
TT (plasma coagulation [2]; 0.05 µM): 23.35 ± 0.31 s
TT (plasma coagulation [2]; 0.20 µM): 22.90 ± 0.09 s
TT (plasma coagulation [2]; 0.78 µM): 23.95 ± 0.07 s
TT (plasma coagulation [2]; 3.13 µM): 25.25 ± 0.27 s
TT (plasma coagulation [2]; 12.50 µM): 28.89 ± 0.68 s
TT (plasma coagulation [2]; 50.00 µM): 38.87 ± 0.77 s
inhibition of plasma coagulation (coagulation indexes APTT, PT, and TT) (plasma coagulation [3]; dose gradients 50.00, 12.50, 3.13, 0.78, 0.20, 0.05 (printed µL), covers APTT, PT and TT): dose-dependently inhibit plasma coagulation
APTT (plasma coagulation [3]; 0.05 µM): 20.12 ± 0.09 s
APTT (plasma coagulation [3]; 0.20 µM): 24.03 ± 1.05 s
APTT (plasma coagulation [3]; 0.78 µM): 26.84 ± 0.79 s
APTT (plasma coagulation [3]; 3.13 µM): 37.72 ± 1.83 s
APTT (plasma coagulation [3]; 12.50 µM): 75.11 ± 2.58 s
APTT (plasma coagulation [3]; 50.00 µM): 106.51 ± 0.94 s
inhibition of virus infection in cells ([1]; 20 µM concentration): significantly inhibit virus infection in cells
PT (plasma coagulation [4]; 0.05 µM): 9.76 ± 0.85 s
PT (plasma coagulation [4]; 0.20 µM): 10.11 ± 0.30 s
PT (plasma coagulation [4]; 0.78 µM): 10.54 ± 0.37 s
PT (plasma coagulation [4]; 3.13 µM): 12.83 ± 0.19 s
PT (plasma coagulation [4]; 12.50 µM): 13.73 ± 0.17 s
PT (plasma coagulation [4]; 50.00 µM): 16.66 ± 0.45 s
